In patent US12428424B2, “Estrogen receptor-modulating compounds” (RADIUS PHARMACEUTICALS, INC., priority 2019, dated 2025) one finds IC50 and wet uterine weight data, which are given here for 5 compounds.

In general, IC50 refers to the concentration that gives 50% inhibition. A higher IC50 goes with weaker potency in that assay.

The subject of the first test is MCF-7 cells. The test is described as follows: MCF-7 Proliferation Inhibition Assay (E2-induced proliferation, CellTiterGlo). The test is classed as cell-based. The following applies: Homo sapiens, MCF7, 168 h, 10 pM dose of E2, 7 days incubation. On the procedure:
Proliferation Assay in MCF-7 and T47 D Cells
MCF-7 and T47D cells were stripped for 3 days in phenol red-free RPMI1640 media containing 10% charcoal-stripped fetal bovine serum (CS-FBS) and 1% Penicillin/streptomycin (P/S). Cells (volume of 90 μl/well) were seeded in 96 well plates at a density of 2500 cells/well for MCF-7 cells and 1500 cells/well for T47D cells. On the following day, plates were treated with the test compounds (10× concentration in media, volume of 10 μl/well added) both in the absence and in the presence of two doses of E2 (10 pM and 1 nM). The cells were incubated with test compounds for 7 days. The viability of the cells was assessed using CellTiterGlo (Promega, Cat #G7573) according to the manufacturer's instructions. Growth inhibition curves and IC50 values were calculated using the GraphPadPrism 6.0 software. Data values shown in Table 1 were obtained using the 10 pM dose of E2.
In general terms: Cellular ATP, detected with luciferase, serves as a proxy for viable cell number.
As to `Cc1ccccc1-c1c(F)c2c3cn[nH]c3ccc2n1Cc1ccc(CCNCCCF)cc1F` [Compound D-105, 3-fluoro-N-(3-fluoro-4-((8-fluoro-7-(o-tolyl)pyrrolo[3,2-e]indazol-6(3H)-yl)methyl)phenethyl)propan-1-amine], the IC50 was under 1 nM.

As to `Cc1ccccc1-c1c(F)c2c3cn[nH]c3ccc2n1Cc1c(F)cc(CCNCCCF)cc1F` [Compound D-106, N-(3,5-difluoro-4-((8-fluoro-7-(o-tolyl)pyrrolo[3,2-e]indazol-6(3H)-yl)methyl)phenethyl)-3-fluoropropan-1-amine], the IC50 is under 1 nM.

The compound `Cc1ccccc1-c1c(F)c2c3c(F)n[nH]c3ccc2n1Cc1ccc(CCNCCCF)cc1` [Compound D-107, N-(4-((1,8-difluoro-7-(o-tolyl)pyrrolo[3,2-e]indazol-6(3H)-yl)methyl)phenethyl)-3-fluoropropan-1-amine] came in with an IC50 of under 1 nM.

On to `Cc1ccccc1-c1cc2c3c(F)n[nH]c3ccc2n1Cc1ccc(CCNCCCF)cc1F` [Compound D-108, 3-Fluoro-N-(3-fluoro-4-((1-fluoro-7-(o-tolyl)pyrrolo[3,2-e]indazol-6(3H)-yl)methyl)phenethyl)propan-1-amine], for which the IC50 was under 1 nM.

`Cc1ccccc1-c1c(Cl)c2c3cn[nH]c3ccc2n1Cc1ccc(CCNCCCF)cc1` [Compound D-109, N-(4-((8-Chloro-7-(o-tolyl)pyrrolo[3,2-e]indazol-6(3H)-yl)methyl)phenethyl)-3-fluoropropan-1-amine] returned an IC50 of under 1 nM.

The subject of a further test is E2-induced increase in uterine weight. The test is described as follows: Immature rat uterine assay. To be noted: immature rats, oral dose of 3 mg/kg in combination with E2 (0.01 mg/kg), once daily for three days. It counts as in vivo, Sprague-Dawley rat. On the procedure:
Immature Rat Uterine Assay
Sprague-Dawley rat pups were weaned at 19 days of age, randomized into groups (n=6), and administered vehicle (aqueous 20% HPBCD, 10% PEG400 in H2O), E2 (0.01 mg/kg), test compounds (0.1 mg/kg-3 mg/kg) in combination with E2 (0.01 mg/kg), either by subcutaneous injection or by oral gavage, once daily for three consecutive days. Twenty-four hours after the final dose, all animals were killed by carbon dioxide inhalation. Body weights and wet uterine weights were recorded for each animal. GraphPadPrism 6.0 software was used to analyze data.
Consider `Cc1ccccc1-c1c(F)c2c3cn[nH]c3ccc2n1Cc1ccc(CCNCCCF)cc1F` [Compound D-105, 3-fluoro-N-(3-fluoro-4-((8-fluoro-7-(o-tolyl)pyrrolo[3,2-e]indazol-6(3H)-yl)methyl)phenethyl)propan-1-amine], for which the wet uterine weight entry is “suppressed wet uterine weight to baseline”.
